Results taken from ChEMBL document CHEMBL2346579, “Structure-based approaches to ligands for G-protein-coupled adenosine and P2Y receptors, from small molecules to nanoconjugates” (J Med Chem, 2013).
Blank lines part the entries; values can stand above or below the compound they belong to.

Columns and labels:
[1] = target: Adenosine receptor A2a (Homo sapiens) (UniProt P29274); assay: Antagonist activity at A2A adenosine receptor (unknown origin)
[2] = target: Adenosine receptor A2a (Homo sapiens) (UniProt P29274); assay: Positive allosteric modulation of A2A adenosine receptor (unknown origin)
[3] = target: Adenosine receptor A2a (Homo sapiens) (UniProt P29274); assay: Binding affinity to A2A adenosine receptor (unknown origin)
[4] = target: Adenosine receptor A2a (Homo sapiens) (UniProt P29274); assay: Negative allosteric modulation of A2A adenosine receptor (unknown origin)

Chain of Adenosine receptor A2a (Homo sapiens) (P29274 whole entry): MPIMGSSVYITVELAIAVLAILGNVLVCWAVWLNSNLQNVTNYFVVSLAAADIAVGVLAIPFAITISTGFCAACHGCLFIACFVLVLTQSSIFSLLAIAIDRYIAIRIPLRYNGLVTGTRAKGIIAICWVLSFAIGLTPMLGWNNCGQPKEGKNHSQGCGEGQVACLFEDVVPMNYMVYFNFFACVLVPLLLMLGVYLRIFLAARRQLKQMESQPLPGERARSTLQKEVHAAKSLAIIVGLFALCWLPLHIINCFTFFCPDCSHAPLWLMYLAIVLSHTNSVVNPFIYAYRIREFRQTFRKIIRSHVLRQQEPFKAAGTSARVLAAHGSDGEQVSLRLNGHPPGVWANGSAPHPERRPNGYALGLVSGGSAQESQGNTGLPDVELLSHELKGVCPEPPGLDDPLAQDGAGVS

Structure (SMILES): Cc1cc(C)nc(NC(=N)NCCc2c[nH]c3ccc(F)cc23)n1
Activity [1]: 200 nM

Structure (SMILES): Nc1nnc(-c2cc(C(F)(F)F)nc(C(F)(F)F)c2)c(-c2ccccc2)n1
Activity [1]: 30 nM

Now from value to compound:

Activity [2]: 2 mM
Structure (SMILES): O=C(O)CCN1CCCc2ccccc21

Activity [3]: 70 nM
Structure (SMILES): Nc1nc(-c2ccc(F)cc2)ns1

Activity [4]: 2 mM
Structure (SMILES): Oc1cccc(Nc2ccccc2)c1
